Like-named read-outs stand apart in the source and are kept apart here.
How the values were obtained:
[1] = system: GM1 production in Jurkat cells; test: cells; format: cell-based
[2] = molecular target: T1, glucosylceramide synthase (GCS) (Homo sapiens, UniProt Q16739); test: GCS enzyme inhibition assay (A549 cell lysate, NBD C6-ceramide, HPLC fluorescence); format: biochemical; details: inhibitory activity against GCS, 37° C., 90 minutes
T1 construct: The obtained supernatant was used; host or cells: A549 cells (lysate supernatant after sonication)
T1 sequence (Q16739 1-394): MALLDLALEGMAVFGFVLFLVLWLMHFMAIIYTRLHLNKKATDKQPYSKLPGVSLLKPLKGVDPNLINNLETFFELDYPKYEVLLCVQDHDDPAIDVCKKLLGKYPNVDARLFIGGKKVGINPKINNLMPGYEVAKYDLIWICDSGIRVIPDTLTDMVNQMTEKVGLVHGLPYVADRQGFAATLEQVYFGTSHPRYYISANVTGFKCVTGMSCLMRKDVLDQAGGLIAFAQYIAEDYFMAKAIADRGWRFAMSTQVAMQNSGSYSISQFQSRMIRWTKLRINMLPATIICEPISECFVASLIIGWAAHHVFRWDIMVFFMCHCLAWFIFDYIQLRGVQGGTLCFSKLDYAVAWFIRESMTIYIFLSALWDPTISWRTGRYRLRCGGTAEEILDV
In short: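 A549 cell lysate (50 mM HEPES pH 7.3) served as GCS source; reactions ran 90 min at 37° C, were stopped with chloroform/methanol and lipids extracted. Activity taken as GlcCer/(Cer+GlcCer) peak area, normalised between DMSO and ibiglustat controls.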

| Structure (SMILES) | IC50 ([1]; Homo sapiens, Jurkat, 72 h) [nM] | IC50 [2] [nM] | IC50 [1] [nM] |
| --- | --- | --- | --- |
| CC1(C)COc2cc(-c3ccc(C4CCOCC4)cc3)ccc2C1NC(=O)O[C@@H]1CN2CCC1CC2 (stereo partly drawn) [Example 202, (S)-quinuclidin-3-yl (3,3-dimethyl-7-(4-(tetrahydro-2H-pyran-4-yl)phenyl)chroman-4-yl)carbamate] | 0.47 | 0.28 |  |
| COc1cc(-c2ccc3c(c2)OCC(C)(C)C3NC(=O)O[C@@H]2CN3CCC2CC3)ccn1 (stereo partly drawn) [Example 203, (S)-quinuclidin-3-yl (7-(2-methoxypyridin-4-yl)-3,3-dimethylchroman-4-yl)carbamate] | 8.03 | 0.72 |  |
| CC1(C)COc2cc(-c3ccc(N4CCOCC4)c(Cl)c3)ccc2C1NC(=O)O[C@@H]1CN2CCC1CC2 (stereo partly drawn) [Example 205, (S)-quinuclidin-3-yl (7-(3-chloro-4-morpholinophenyl)-3,3-dimethylchroman-4-yl)carbamate] | 0.25 | 0.65 |  |
| COc1ccc(-c2ccc3c(c2)OCC(C)(C)C3NC(=O)O[C@@H]2CN3CCC2CC3)cc1 (stereo partly drawn) [Example 206, (S)-quinuclidin-3-yl (7-(4-methoxyphenyl)-3,3-dimethylchroman-4-yl)carbamate] | 0.01 | 0.5 |  |
| COc1cncc(-c2ccc3c(c2)OCC(C)(C)C3NC(=O)O[C@@H]2CN3CCC2CC3)c1 (stereo partly drawn) [Example 207, (S)-quinuclidin-3-yl (7-(5-methoxypyridin-3-yl)-3,3-dimethylchroman-4-yl)carbamate] | 1.06 | 1.12 |  |
| CC1(C)COc2cc(-c3cc4ccccc4s3)ccc2C1NC(=O)O[C@@H]1CN2CCC1CC2 (stereo partly drawn) [Example 208, (S)-quinuclidin-3-yl (7-(benzo[b]thiophen-2-yl)-3,3-dimethylchroman-4-yl)carbamate] | 2.47 | 1.41 |  |
| CCOc1ccc(-c2ccc3c(c2)OCC(C)(C)C3NC(=O)O[C@@H]2CN3CCC2CC3)cc1 (stereo partly drawn) [Example 209, (S)-quinuclidin-3-yl (7-(4-ethoxyphenyl)-3,3-dimethylchroman-4-yl)carbamate] | 0.01 | 0.34 |  |
| COc1ccc(-c2ccc3c(c2)OCC(C)(C)C3NC(=O)O[C@@H]2CN3CCC2CC3)cc1C(F)(F)F (stereo partly drawn) [Example 210, (S)-quinuclidin-3-yl (7-(4-methoxy-3-(trifluoromethyl)phenyl)-3,3-dimethylchroman-4-yl)carbamate] |  | 1.57 | 18 |
| CC1(C)COc2cc(-c3ccc(C(F)(F)F)cc3)ccc2C1NC(=O)O[C@@H]1CN2CCC1CC2 (stereo partly drawn) [Example 211, (S)-quinuclidin-3-yl (3,3-dimethyl-7-(4-(trifluoromethyl)phenyl)chroman-4-yl)carbamate] | 1.41 | 0.71 |  |
| CC1(C)COc2cc(-c3cccc4[nH]ncc34)ccc2C1NC(=O)O[C@@H]1CN2CCC1CC2 (stereo partly drawn) [Example 212, (S)-quinuclidin-3-yl (7-(1H-indazol-4-yl)-3,3-dimethylchroman-4-yl)carbamate] | 2.45 | 0.87 |  |
| CC1(C)COc2cc(-c3ccc(Cl)cc3)ccc2C1NC(=O)O[C@@H]1CN2CCC1CC2 (stereo partly drawn) [Example 213, (S)-quinuclidin-3-yl (7-(4-chlorophenyl)-3,3-dimethylchroman-4-yl)carbamate] | 0.03 | 0.78 |  |
| CC1(C)COc2cc(-c3ccc(F)cc3)ccc2C1NC(=O)O[C@@H]1CN2CCC1CC2 (stereo partly drawn) [Example 214, (S)-quinuclidin-3-yl (7-(4-fluorophenyl)-3,3-dimethylchroman-4-yl)carbamate] | 1.81 | 0.55 |  |
| COc1ncc(-c2ccc3c(c2)OCC(C)(C)C3NC(=O)O[C@@H]2CN3CCC2CC3)cc1Cl (stereo partly drawn) [Example 215, (S)-quinuclidin-3-yl (7-(5-chloro-6-methoxypyridin-3-yl)-3,3-dimethylchroman-4-yl)carbamate] | 2.51 | 1.57 |  |
| CN1C(=O)COc2ccc(-c3ccc4c(c3)OCC(C)(C)C4NC(=O)O[C@@H]3CN4CCC3CC4)cc21 (stereo partly drawn) [Example 216, (S)-quinuclidin-3-yl (3,3-dimethyl-7-(4-methyl-3-oxo-3,4-dihydro-2H-benzo[b][1,4]oxazin-6-yl)chroman-4-yl)carbamate] | 8.58 | 1.51 |  |
| CC1(C)COc2cc(-c3ccc(F)c(F)c3F)ccc2C1NC(=O)O[C@@H]1CN2CCC1CC2 (stereo partly drawn) [Example 217, (S)-quinuclidin-3-yl (3,3-dimethyl-7-(2,3,4-trifluorophenyl)chroman-4-yl)carbamate] | 7.35 | 0.55 |  |
| CC1(C)COc2cc(-c3ccc(OC(F)F)cc3)ccc2C1NC(=O)O[C@@H]1CN2CCC1CC2 (stereo partly drawn) [Example 218, (S)-quinuclidin-3-yl (7-(4-(difluoromethoxy)phenyl)-3,3-dimethylchroman-4-yl)carbamate] | 2.69 | 0.4 |  |

| Structure (SMILES) | IC50 ([1]; Homo sapiens, Jurkat, 72 h) [nM] | IC50 [2] [nM] | IC50 [1] [nM] |
| --- | --- | --- | --- |
| CC1(C)COc2cc(-c3cccc4ncccc34)ccc2C1NC(=O)O[C@@H]1CN2CCC1CC2 (stereo partly drawn) [Example 219, (S)-quinuclidin-3-yl (3,3-dimethyl-7-(quinolin-5-yl)chroman-4-yl)carbamate] | 7.58 | 2.26 |  |
| CC1(C)COc2cc(-c3ccc4nonc4c3)ccc2C1NC(=O)O[C@@H]1CN2CCC1CC2 (stereo partly drawn) [Example 220, (S)-quinuclidin-3-yl (7-(benzo[c][1,2,5]oxadiazol-5-yl)-3,3-dimethylchroman-4-yl)carbamate] | 2.42 | 0.8 |  |
| Cc1cncc(-c2ccc3c(c2)OCC(C)(C)C3NC(=O)O[C@@H]2CN3CCC2CC3)c1 (stereo partly drawn) [Example 221, (S)-quinuclidin-3-yl (3,3-dimethyl-7-(5-methylpyridin-3-yl)chroman-4-yl)carbamate] | 2.8 | 0.74 |  |
| CC1(C)COc2cc(-c3cccnc3F)ccc2C1NC(=O)O[C@@H]1CN2CCC1CC2 (stereo partly drawn) [Example 222, (S)-quinuclidin-3-yl (7-(2-fluoropyridin-3-yl)-3,3-dimethylchroman-4-yl)carbamate] | 6.59 | 0.79 |  |
| Cc1ccc(-c2ccc3c(c2)OCC(C)(C)C3NC(=O)O[C@@H]2CN3CCC2CC3)c(Cl)c1 (stereo partly drawn) [Example 223, (S)-quinuclidin-3-yl (7-(2-chloro-4-methylphenyl)-3,3-dimethylchroman-4-yl)carbamate] | 1.6 | 1.58 |  |
| Cc1ccc(Cl)c(-c2ccc3c(c2)OCC(C)(C)C3NC(=O)O[C@@H]2CN3CCC2CC3)c1 (stereo partly drawn) [Example 224, (S)-quinuclidin-3-yl (7-(2-chloro-5-methylphenyl)-3,3-dimethylchroman-4-yl)carbamate] | 0.6 | 0.62 |  |
| Cc1ccc(-c2ccc3c(c2)OCC(C)(C)C3NC(=O)O[C@@H]2CN3CCC2CC3)c(F)c1 (stereo partly drawn) [Example 225, (S)-quinuclidin-3-yl (7-(2-fluoro-4-methylphenyl)-3,3-dimethylchroman-4-yl)carbamate] | 1.7 | 0.45 |  |
| Cc1ccc(-c2ccc3c(c2)OCC(C)(C)C3NC(=O)O[C@@H]2CN3CCC2CC3)cc1Cl (stereo partly drawn) [Example 226, (S)-quinuclidin-3-yl (7-(3-chloro-4-methylphenyl)-3,3-dimethylchroman-4-yl)carbamate] | 1.3 | 0.71 |  |
| Cc1cc(F)ccc1-c1ccc2c(c1)OCC(C)(C)C2NC(=O)O[C@@H]1CN2CCC1CC2 (stereo partly drawn) [Example 227, (S)-quinuclidin-3-yl (7-(4-fluoro-2-methylphenyl)-3,3-dimethylchroman-4-yl)carbamate] | 4.5 | 0.56 |  |
| Cc1ccc(-c2ccc3c(c2)OCC(C)(C)C3NC(=O)O[C@@H]2CN3CCC2CC3)cc1F (stereo partly drawn) [Example 228, (S)-quinuclidin-3-yl (7-(3-fluoro-4-methylphenyl)-3,3-dimethylchroman-4-yl)carbamate] | 1.3 | 0.55 |  |
| Cc1cc(-c2ccc3c(c2)OCC(C)(C)C3NC(=O)O[C@@H]2CN3CCC2CC3)ccc1F (stereo partly drawn) [Example 229, (S)-quinuclidin-3-yl (7-(4-fluoro-3-methylphenyl)-3,3-dimethylchroman-4-yl)carbamate] | 2.1 | 0.71 |  |
| CC1(C)COc2cc(-c3ccc(Cl)cc3Cl)ccc2C1NC(=O)O[C@@H]1CN2CCC1CC2 (stereo partly drawn) [Example 230, (S)-quinuclidin-3-yl (7-(2,4-dichlorophenyl)-3,3-dimethylchroman-4-yl)carbamate] | 0.8 | 0.86 |  |
| CC1(C)COc2cc(-c3ccc(F)cc3Cl)ccc2C1NC(=O)O[C@@H]1CN2CCC1CC2 (stereo partly drawn) [Example 231, (S)-quinuclidin-3-yl (7-(2-chloro-4-fluorophenyl)-3,3-dimethylchroman-4-yl)carbamate] | 1.5 | 0.62 |  |
| CC1(C)COc2cc(-c3cc(F)ccc3Cl)ccc2C1NC(=O)O[C@@H]1CN2CCC1CC2 (stereo partly drawn) [Example 232, (S)-quinuclidin-3-yl (7-(2-chloro-5-fluorophenyl)-3,3-dimethylchroman-4-yl)carbamate] | 0.3 | 0.41 |  |
| CC1(C)COc2cc(-c3ccc(F)cc3F)ccc2C1NC(=O)O[C@@H]1CN2CCC1CC2 (stereo partly drawn) [Example 233, (S)-quinuclidin-3-yl (7-(2,4-difluorophenyl)-3,3-dimethylchroman-4-yl)carbamate] | 3 | 0.49 |  |
| CC1(C)COc2cc(-c3cc(F)ccc3F)ccc2C1NC(=O)O[C@@H]1CN2CCC1CC2 (stereo partly drawn) [Example 234, (S)-quinuclidin-3-yl (7-(2,5-difluorophenyl)-3,3-dimethylchroman-4-yl)carbamate] | 1.1 | 0.4 |  |

Source: patent US12673944B2, “Compounds having inhibitory activity against glucosylceramide synthase or pharmaceutically acceptable salt thereof, processes for preparing the same, and pharmaceutical compositions comprising the same” (YUHAN CORPORATION, priority 2019, dated 2026)
